Measurements taken from PMC8019628, “Acetylcholinesterase Inhibitory and Antioxidant Activity of the Compounds Isolated from Vanda roxburghii” (Advances in Pharmacological and Pharmaceutical Sciences, 2021).
Values after ≈ are worked out from the molar mass of the structure shown. Read-outs that look alike come from different tables or passages of the source.

Legend:
[1] = Reducing power assay (Fe+3-ferricyanide reduction)
Protocol: The reducing power of the compounds was determined by the method of Oyaizu. The compound (1 ml) was added to a mixture of 0.2 M potassium buffer (2.5 ml) and 1% potassium ferricyanide (2.5 ml) and incubated at 50°C for 20 minutes. Then, 10% TCA solution (2.5 ml) was added to the reaction mixture and centrifuged (3000 rpm) for 10 minutes. Finally, 2.5 ml of solution was mixed with 2.5 ml of double distilled water and 0.5 ml of 0.1% ferric chloride solution. The absorbance of the reaction mixture was recorded at 700 nm. A standard antioxidant catechin was used for comparison.

AChE = target: T1, AChE (Mus musculus, UniProt P21836); assay: biochemical; conditions: for Z-factor of acetylcholinesterase inhibitory activity: assay performance of the compound versus control
T1 construct: The AChE enzyme was prepared from mouse brain as described earlier; from tissue; host or cells: brain of Swiss albino mice
Protocol: The AChE enzyme was prepared from mouse brain as described earlier. Compound at different concentrations was mixed with AChE solution and incubated at 37°C for 15 min. The rates of hydrolysis by AChE was monitored by spectrophotometer at 405 nm immediately after adding an Ellman's reaction mixture containing 0.5 mM acetylthiocholine and 1 mM 5, 5′-dithio-bis (2-nitro benzoic acid) (DTNB) in a 50 mM phosphate buffer (pH 8.0) to the above reaction mixture. […] The percentage inhibition of AChE activity was calculated using the following formula:(1) Absorbance of control−Absorbance of sample/Absorbance of control×100.
IC50 value could be calculated from the inhibition curve obtained by plotting the percent inhibition values against test concentrations of each compound.
Quality of assay was assessed by using Z' factor as follows:(2) Z′=1−3σc++σc−/μc+−μc−, where σc+ and σc−are the standard deviations of the positive and negative control and μc+ and μc−are the means of the positive and negative control, respectively.

[2] = Total antioxidant capacity (reduction of Mo (VI) to Mo (V)); conditions: 80 μg/ml, 695 nm, mean ± SD (n = 3)
Protocol: The antioxidant capacity of the compounds was assessed by the method as described earlier. The compound was added to a mixture of sulphuric acid (0.6 M), sodium phosphate (28 mM), and ammonium molybdate (4 mM) and heated in a water bath at 95°C for 90 min. After cooling to room temperature, the absorbance of the mixture was recorded at 695 nm against blank. A standard antioxidant catechin was used for comparison.

[3] = tested on: lipid peroxidation in mouse brain homogenate; assay: Lipid peroxidation inhibition assay (TBARS); type: biochemical; conditions: ferric ion plus ascorbic acid, mean ± SD (n = 3)
Protocol: . Catechin was used as a reference antioxidant. Mouse brain homogenate was employed as the source of lipid which was prepared by homogenizing the brain in the phosphate buffer followed by centrifugation at 10,000 g. Lipid peroxidation was induced by ferric ion plus ascorbic acid. The TBARS produced from the reaction of lipid peroxides with thiobarbituric acid was determined colorimetrically at 532 nm. Results were presented as percentage of lipid peroxidation inhibition in relation to the control. The IC50 values were determined from the graph plotted as percent inhibition of lipid peroxidation against concentration of each compound.

[4] = DPPH radical scavenging assay; conditions: mean ± SD (n = 3)
Protocol: The DPPH radical scavenging ability of the compounds was estimated using the method described by Choi et al.. Catechin was used as a standard antioxidant for comparison. Compound at different concentrations was added to a methanolic solution of DPPH (0.135 mM) and vortexed and left for 30 minutes in the dark. The absorbance of the reaction mixture was measured spectrophotometrically at 517 nm. DPPH free radical scavenging ability (%) was calculated by using the following formula:(4) Absorbance of control−Absorbance of sample/Absorbance of control×100.
The result was presented as IC50 value which is the concentration required to cause 50% scavenging. The IC50 value was calculated from the graph plotted as percent scavenging of DPPH free radical against concentration of each compound.

[5] = Hydroxyl radical scavenging assay (deoxyribose degradation method); conditions: mean ± SD (n = 3)
Protocol: The potential of the compounds to scavenge the hydroxyl free radical was assayed by the deoxyribose degradation method as described by Elizabeth and Rao [23]. Catechin was used as a reference antioxidant. Compound at different concentrations was mixed with a reaction mixture containing 2.8 mM 2-deoxy-2-ribose, 20 mM phosphate buffer (pH 7.4), 100 μM FeCl3, 100 μM EDTA, 1.0 mM H2O2, and 100 μM ascorbic acid and incubated at 37°C for 1 hour. This was then followed by the addition of 2.8% trichloro acetic acid (TCA) and 1% TBA. The reaction mixture was heated on a boiling water bath. After cooling, the absorbance was measured at 532 nm against an appropriate blank solution. The result was expressed as percent scavenging of hydroxyl radical in relation to the control. The IC50 values were calculated from the graph plotted as percent scavenging of hydroxyl free radical against concentration of each compound.

[6] = 100 μg/ml, 700 nm (as stated in Figure 4 legend), mean ± SD (n = 3)
[7] = mouse brain AChE, acetylthiocholine substrate, mean ± SD (n = 3), read-out: IC50, inhibition of acetylcholinesterase activity (converted)

T1 sequence (P21836 32-614): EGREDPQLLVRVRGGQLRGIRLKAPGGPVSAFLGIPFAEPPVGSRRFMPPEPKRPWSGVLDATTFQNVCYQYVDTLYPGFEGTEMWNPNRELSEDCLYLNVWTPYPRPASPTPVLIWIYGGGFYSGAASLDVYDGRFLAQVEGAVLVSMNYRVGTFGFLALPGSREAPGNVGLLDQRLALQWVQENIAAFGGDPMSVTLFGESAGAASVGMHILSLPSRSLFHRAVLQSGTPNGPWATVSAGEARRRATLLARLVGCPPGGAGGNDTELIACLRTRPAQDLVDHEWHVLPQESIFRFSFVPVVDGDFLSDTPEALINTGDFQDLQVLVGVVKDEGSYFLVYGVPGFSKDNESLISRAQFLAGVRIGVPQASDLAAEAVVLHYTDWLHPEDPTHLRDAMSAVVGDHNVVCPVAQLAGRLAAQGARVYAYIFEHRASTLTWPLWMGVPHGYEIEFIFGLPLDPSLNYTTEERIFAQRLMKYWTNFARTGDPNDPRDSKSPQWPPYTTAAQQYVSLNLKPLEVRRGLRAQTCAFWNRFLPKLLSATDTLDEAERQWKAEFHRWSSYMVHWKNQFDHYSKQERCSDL

Structure (SMILES) | Reducing power, absorbance ([1]; 80 μg/ml) | Reducing power, absorbance [1, 6] | Z-factor of acetylcholinesterase inhibitory activity (AChE) | IC50 (AChE; [7]) [µM] | Total antioxidant activity, absorbance [2] | IC50, inhibition of lipid peroxidation [3] | IC50, DPPH radical scavenging [4] | IC50, hydroxyl radical scavenging [5] | IC50 (AChE) [µM] | IC50, inhibition of acetylcholinesterase activity (AChE; mouse brain AChE, acetylthiocholine substrate, mean ± SD (n = 3))
COc1cc(CCCOC(=O)CCc2ccc(O)cc2)ccc1O [Compound 4, dihydroconiferyl dihydro-p-coumarate] | 0.894 ± 0.014 | 0.894 ± 0.014 | 0.87 | 358 | 0.735 ± 0.022 | 44.20 ± 1.01 µg/mL | 12.16 ± 0.55 µg/mL (≈ 36.8 µM) | 15.07 ± 1.20 µg/mL (≈ 45.6 µM) | – | –
COc1cc(C=O)cc(OC)c1O [Compound 2, syringaldehyde] | 0.667 ± 0.035 | 0.667 ± 0.035 | 0.80 | – | 0.336 ± 0.009 | 141.60 ± 6.19 µg/mL | 40.64 ± 1.68 µg/mL (≈ 223 µM) | 91.05 ± 3.75 µg/mL (≈ 500 µM) | 6960 | –
CCCCC/C=C\C/C=C\CCCCCCCC(=O)OC [Compound 1, methyl linoleate] | – | no activity | – | – | no activity | no activity | no activity | no activity | – | no activity
COc1cc(C=O)ccc1O [Compound 3, vanillin] | 0.746 ± 0.005 | 0.746 ± 0.005 | 0.91 | – | 0.716 ± 0.020 | 57.02 ± 2.78 µg/mL | 19.64 ± 0.73 µg/mL (≈ 129 µM) | 21.72 ± 0.87 µg/mL (≈ 143 µM) | 556 | –
O.Oc1cc(O)c2c(c1)O[C@H](c1ccc(O)c(O)c1)[C@@H](O)C2 [Catechin, reference compound] | – | 1.964 ± 0.019 | – | – | 1.739 ± 0.049 | 14.10 ± 0.43 µg/mL | 4.35 ± 0.09 µg/mL | 9.32 ± 0.39 µg/mL | – | –
COc1cc(O)cc(CCc2ccc(O)c(OC)c2)c1 [Compound 5, gigantol] | 1.865 ± 0.030 | 1.865 ± 0.030 | 0.80 | 2000 | 0.848 ± 0.029 | 32.28 ± 1.10 µg/mL | 4.16 ± 0.37 µg/mL (≈ 15.2 µM) | 6.61 ± 0.76 µg/mL (≈ 24.1 µM) | – | –
